From ChEMBL document CHEMBL1157287, “Steroidal saponins from the rhizomes of Polygonatum sibiricum” (J Nat Prod, 2006)

System: MCF7
Assay: Cytotoxicity against human MCF7 cells by MTT assay
Format: functional, cell-based

SMILES	IC50 [µM]
CC(=O)O[C@@H]1C[C@H](O[C@@H]2O[C@H](C)[C@H](O[C@@H]3O[C@H](CO)[C@@H](O)[C@H](O)[C@H]3O[C@@H]3O[C@H](CO)[C@@H](O)[C@H](O)[C@H]3O)[C@H](O)[C@H]2O)CC2=CC[C@H]3[C@@H]4C[C@@H]5O[C@@]6(OC[C@@H](C)[C@@H](O)[C@@H]6O)[C@@H](C)[C@@H]5[C@@]4(C)CC[C@@H]3[C@]21C	> 100
CC1CC[C@@]2(OC1)O[C@H]1C[C@H]3[C@@H]4CC=C5C[C@@H](O[C@@H]6O[C@H](CO)[C@H](O[C@@H]7O[C@H](CO)[C@@H](O)[C@H](O)[C@H]7O[C@@H]7O[C@H](CO)[C@@H](O)[C@H](O)[C@H]7O)[C@H](O)[C@H]6O)CC[C@]5(C)[C@H]4CC[C@]3(C)[C@H]1[C@@H]2C (mixture of isomers)	24.3
